What was measured:
Fusarium proliferatum [1] = experiment: Treatment of wounded, inoculated bananas (mould growth); assay type: in vivo; conditions: 20° C.
Method: Four organic, unripe (green) bananas were used per treatment. The peel of each banana was wounded thrice using a cork borer according to the method described by de Lapeyre de Bellaire and Dubois (1987). Subsequently, each wound was inoculated with 15 μl of a Fusarium proliferatum suspension containing 1×10^5 of spores/ml. […] In addition, the antifungal compositions comprised 1.00% (w/w) methylhydroxyethylcellulose (MHEC), 0.40% (w/w) xanthan gum, 0.20% (w/w) anti-foaming agent, 0.30% (w/w) citric acid, 0.39% (w/w) lactic acid and 0.11% (w/w) potassium sorbate. […] The treated, unripe bananas were incubated in a closed box in the dark at 20° C. and a relative air humidity of 95%, which was obtained in the presence of a saturated Na2HPO4 aqueous solution. During the first 20 days of incubation, a ripe (yellow) banana was included in the closed box to elevate the ethylene gas level and thus induce ripening of the treated, unripe bananas.
(§1) The expected antifungal activity (E in %) of the combined antifungal composition comprising both active ingredients was calculated according to the Colby equation (Colby, 1967): E=X+Y−[(X·Y)/100] wherein X and Y are the observed antifungal activities (in %) of the individual active ingredients X and Y, respectively. If the observed antifungal activity (0 in %) of the combination exceeds the expected antifungal activity (E in %) of the combination and the synergy factor O/E is thus >1.0, the combined application of the active ingredients leads to a synergistic antifungal effect.
The degree of mould growth on the banana wounds was assessed according to the two methods described in Example 3.

Botrytis cinerea [2] = experiment: Treatment of wounded, inoculated strawberries (mould growth); assay type: in vivo; conditions: 20° C., 250 ppm natamycin, 500 ppm pyrimethanil or both
Method: Twelve fresh, organic strawberries were used per treatment. Each strawberry was wounded with a 0.5 mm long cut and each wound was inoculated with 10 μl of a Botrytis cinerea suspension containing 1×10^5 of spores/ml. […] The antifungal composition also comprised 1.00% (w/w) methylhydroxyethylcellulose (MHEC), 0.40% (w/w) xanthan gum, 0.20% (w/w) anti-foaming agent, 0.30% (w/w) citric acid, 0.39% (w/w) lactic acid and 0.11% (w/w) potassium sorbate. A composition without natamycin or pyrimethanil was used as control.
as §1, with “The treated strawberries were incubated for three days in a closed box in the dark at 20° C. and assessed daily on mould growth. The antifungal activity (in %) of the individual active ingredients was determined by calculating the reduction in mould growth observed on the strawberries treated with the antifungal composition in comparison to the mould growth on the strawberries treated with the control composition. The” for “The”, “(O” for “(0”

Penicillium italicum = experiment: Treatment of wounded, inoculated mandarins (mould growth); assay type: in vivo; conditions: 20° C.
Method: Ten fresh, organic mandarins were used per treatment. The peel of each mandarin was wounded once using a cork borer according to the method described by de Lapeyre de Bellaire and Dubois (1987). Subsequently, each wound was inoculated with 10 μl of a Penicillium italicum suspension containing 1×10^4 of spores/ml.
as §1, with “The treated mandarins were incubated in a closed box in the dark at 20° C. and assessed on mould growth after 16, 19, 22 and 26 days of incubation. […] The” for “The”, “(O” for “(0”

Botrytis cinerea [3] = experiment: In vitro antifungal activity, 96-well microtiter plates; assay type: cell-based; conditions: 5 days at 25° C., alone or combined with natamycin
Method: The following compositions were tested:
(§2) Subsequently, 100 μl of a Botrytis cinerea suspension prepared in PCB medium was used to inoculated each well with 2.5×10^3 spores/ml.
(§3) After incubation of the microtiter plates for 5 days at 25° C., the in vitro antifungal activity (%) of the individual active ingredients was assessed by calculating the reduction in mould growth observed in the presence of the active ingredient in comparison to the mould growth observed in the absence of the active ingredient. The expected antifungal activity (E in %) of the active ingredient combination was calculated according to the Colby equation (Colby, 1967): E=X+Y−[(X·Y)/100] wherein X and Y are the observed antifungal activities (in %) of the individual active ingredients X and Y, respectively. If the observed antifungal activity (O in %) of the combination exceeds the expected antifungal activity (E in %) of the combination and the resulting synergy factor O/E is thus >1.0, the combined application of the active ingredients leads to a synergistic antifungal effect.

Fusarium proliferatum [4] = experiment: as above; assay type: cell-based; conditions: 5 days at 25° C.
Method: as §2, §3
The experiment was conducted as described in Example 11, except for the fact that the following compositions were tested:
Furthermore, Fusarium proliferatum was used for inoculation.

[5] = 250 ppm natamycin, 500 ppm pyrimethanil or both, 23 days
[6] = 250 ppm natamycin, 500 ppm pyrimethanil or both, 29 days
[7] = 500 ppm natamycin, 1000 ppm pyrimethanil or both, 22 days
[8] = 500 ppm natamycin, 1000 ppm pyrimethanil or both, 26 days
[9] = natamycin 1.25 ppm, cyprodinil 10 ppm, pyrimethanil 17.5 ppm
[10] = natamycin […], cyprodinil 20 ppm, pyrimethanil 30 ppm
[11] = 250 ppm natamycin, 500 ppm cyprodinil or both, 21 days
[12] = 500 ppm natamycin, 1000 ppm cyprodinil or both, 27 days

Cc1cc(C)nc(Nc2ccccc2)n1 [Pyrimethanil, pyrimethanil]
Observed antifungal activity O (%) (Fusarium proliferatum [1]; [5]): 0% | Observed antifungal activity O (%) (Fusarium proliferatum [1]; [6]): 0% | Observed antifungal activity O (%) (Fusarium proliferatum [1]; 250 ppm natamycin, 500 ppm pyrimethanil or both, 32 days): 0% | Observed antifungal activity O (%) (Fusarium proliferatum [1]; 250 ppm natamycin, 500 ppm pyrimethanil or both, 34 days): 0% | Observed antifungal activity O (%) (Botrytis cinerea [2]; 1 day): 0% | Observed antifungal activity O (%) (Botrytis cinerea [2]; 2 days): 0% | Observed antifungal activity O (%) (Botrytis cinerea [2]; 3 days): 0% | Observed antifungal activity O (%) (Penicillium italicum; 250 ppm natamycin, 500 ppm pyrimethanil or both, 19 days): 84% | Observed antifungal activity O (%) (Penicillium italicum; 250 ppm natamycin, 500 ppm pyrimethanil or both, 22 days): 74% | Observed antifungal activity O (%) (Penicillium italicum; 250 ppm natamycin, 500 ppm pyrimethanil or both, 26 days): 65% | Observed antifungal activity O (%) (Penicillium italicum; [7]): 82% | Observed antifungal activity O (%) (Penicillium italicum; [8]): 79% | Observed antifungal activity O (%) (Botrytis cinerea [3]; [9]): 50% | Observed antifungal activity O (%) (Botrytis cinerea [3]; [10]): 50% | Observed antifungal activity O (%) (Fusarium proliferatum [4]; natamycin 2.5 ppm, pyrimethanil 275 ppm or both): 0%

C[C@@H]1C/C=C/C=C/C=C/C=C/[C@H](O[C@@H]2O[C@H](C)[C@@H](O)[C@H](N)[C@@H]2O)C[C@@H]2O[C@](O)(C[C@@H](O)C[C@H]3O[C@@H]3/C=C/C(=O)O1)C[C@H](O)[C@H]2C(=O)O [Natamycin, natamycin]
Observed antifungal activity O (%) (Fusarium proliferatum [1]; [5]): 19% | Observed antifungal activity O (%) (Fusarium proliferatum [1]; [6]): 9% | Observed antifungal activity O (%) (Botrytis cinerea [2]; 1 day): 25% | Observed antifungal activity O (%) (Botrytis cinerea [2]; 2 days): 31% | Observed antifungal activity O (%) (Botrytis cinerea [2]; 3 days): 24% | Observed antifungal activity O (%) (Penicillium italicum; [7]): 37% | Observed antifungal activity O (%) (Penicillium italicum; [8]): 30%

Cc1cc(C2CC2)nc(Nc2ccccc2)n1 [Cyprodinil, cyprodinil]
Observed antifungal activity O (%) (Fusarium proliferatum [1]; 50 ppm natamycin, 250 ppm cyprodinil or both, 23 days): 0% | Observed antifungal activity O (%) (Fusarium proliferatum [1]; 50 ppm natamycin, 250 ppm cyprodinil or both, 29 days): 0% | Observed antifungal activity O (%) (Fusarium proliferatum [1]; 50 ppm natamycin, 250 ppm cyprodinil or both, 32 days): 0% | Observed antifungal activity O (%) (Fusarium proliferatum [1]; 50 ppm natamycin, 250 ppm cyprodinil or both, 36 days): 0% | Number of moulded wounds/total number of 12 wounds (Fusarium proliferatum [1]; 250 ppm natamycin, 500 ppm cyprodinil or both, 18 days): 12/12 | Number of moulded wounds/total number of 12 wounds (Fusarium proliferatum [1]; 250 ppm natamycin, 500 ppm cyprodinil or both, 18 days, listed as cyprodinil): 12 | Number of moulded wounds/total number of 12 wounds (Fusarium proliferatum [1]; [11]): 12/12 | Observed antifungal activity O (%) (Fusarium proliferatum [1]; [11]): 35% | Number of moulded wounds/total number of 12 wounds (Fusarium proliferatum [1]; 250 ppm natamycin, 500 ppm cyprodinil or both, 21 days, listed as cyprodinil): 12 | Observed antifungal activity O (%) (Fusarium proliferatum [1]; 250 ppm natamycin, 500 ppm cyprodinil or both, 32 days): 3% | Observed antifungal activity O (%) (Fusarium proliferatum [1]; 250 ppm natamycin, 500 ppm cyprodinil or both, 34 days): 0% | Number of moulded wounds/total number of 12 wounds (Fusarium proliferatum [1]; 500 ppm natamycin, 1000 ppm cyprodinil or both, 23 days): 12/12 | Number of moulded wounds/total number of 12 wounds (Fusarium proliferatum [1]; 500 ppm natamycin, 1000 ppm cyprodinil or both, 23 days, listed as cyprodinil): 12 | Number of moulded wounds/total number of 12 wounds (Fusarium proliferatum [1]; [12]): 12/12 | Observed antifungal activity O (%) (Fusarium proliferatum [1]; [12]): 18% | Number of moulded wounds/total number of 12 wounds (Fusarium proliferatum [1]; 500 ppm natamycin, 1000 ppm cyprodinil or both, 27 days, listed as cyprodinil): 12 | Observed antifungal activity O (%) (Fusarium proliferatum [1]; 500 ppm natamycin, 1000 ppm cyprodinil or both, 39 days): 0% | Observed antifungal activity O (%) (Penicillium italicum; 250 ppm natamycin, 500 ppm cyprodinil or both, 16 days): 60% | Observed antifungal activity O (%) (Penicillium italicum; 250 ppm natamycin, 500 ppm cyprodinil or both, 19 days): 38% | Observed antifungal activity O (%) (Penicillium italicum; 250 ppm natamycin, 500 ppm cyprodinil or both, 22 days): 20% | Observed antifungal activity O (%) (Penicillium italicum; 250 ppm natamycin, 500 ppm cyprodinil or both, 26 days): 13% | Observed antifungal activity O (%) (Botrytis cinerea [3]; [9]): 0% | Observed antifungal activity O (%) (Botrytis cinerea [3]; [10]): 0% | Observed antifungal activity O (%) (Fusarium proliferatum [4]; natamycin 1.25 ppm, cyprodinil 125 ppm or both): 0%
